One data set concerns Wnt pathway. Put plainly: Cellular assay for Wnt pathway activity (luciferase reporter cell based assay). The note with it: 24 h, HEK293 luciferase reporter cell line (ER-DSH, TCF dependent promoter), induced with estrogen (1 μM), read-out: 7df3 IC50. A general note: In a reporter assay the amount or activity of a reporter protein is the signal.
The nature of data set [1]: CLint (intrinsic clearance) assay, microsomal incubation. In kind it is in vitro ADME, Human. To be noted: NADPH, 37° C., up to 30 min; for microsomal CLint at 0.8 μM: human, liver microsomes, pH 7.4, human liver microsomes 0.5 mg/mL protein; for Human Clint: human liver microsomes 0.5 mg/mL protein. The procedure: 2. CLint (Intrinsic Clearance) Assay
A Tecan Genesis workstation (RWS ASY 150/8) was used to perform the microsomal incubations. Analysis was carried out using a Waters ACQUITY UPLC system coupled to an ABSciex API3000 mass spectrometer. Data analysis was performed using Assay Explorer (Symyx).
0.1 M potassium phosphate buffer pH 7.4 containing 1 mM MgCl2
15 mM NADPH in phosphate buffer
5.0 mg protein/mL liver microsomes in phosphate buffer
Each experiment consists of 12 test and 2 reference compounds. The reference compounds are incubated as a cocktail.
Dilution of test compounds was done in 2 steps from a 10 mM DMSO stock solution. First 4 μL stock solution was added to 196 μL of 20% DMSO in potassium phosphate buffer pH 7.4. In a second step 10 μL of the first dilution were added to […] potassium phosphate buffer and 100 μL internal standard solution to a final concentration of 0.8 μM. 100 μL of the final compound dilution were aliquoted into a 96 deep well plate. 12.5 μL liver microsomes were added to each well (0.5 mg/mL final protein concentration) and the samples preincubated for 5 min at 37° C. and 800 rpm agitation.
After the preincubation, 250 μL cold acetonitrile were added to the 0 min samples to prevent a reaction. Following this, 12.5 μL NADPH solution were added to all wells to start the incubation, with the exception of the 0 min and 30 min controls without cofactor, where the NADPH was substituted for phosphate buffer.
The incubations were stopped after 5, 10, 20 and 30 min by adding 250 μL cold acetonitrile to the individual wells.
The quenched samples were then centrifuged at 4000 g for 1 h at 4° C. 100 μL of the supernatant were transferred into 96 well plates for analysis.
The metabolic stability of each compound was determined by measurement of the change in LC-MS/MS peak area over time. Assay Explorer software was used to automatically calculate the slope k of the decline. The intrinsic clearance (CLint) of each compound was then calculated according to the formula: CLint(μL/min/mg protein)=k1000/protein concentration.
CLint is shown for each compound in Table 3 below.

A value given as a limit tells only on which side of the number the result lay.

On to `O=C1NCCC12CCN(c1c(Cl)cncc1-c1ccc(-c3cnn([C@H]4CCC[C@@H]4O)c3)cc1)CC2` (racemic) [Example 56, 8-(3-Chloro-5-{4-[1-((1S,2S)-2-hydroxy-cyclopentyl)-1H-pyrazol-4-yl]-phenyl}-pyridin-4-yl)-2,8-diaza-spiro[4.5]decan-1-one], for which the IC50 (commonly the concentration that inhibits the measured activity by half) with Wnt pathway is 7.6 nM. Moreover, the microsomal CLint (as a rule, a measure of how fast metabolising enzymes remove a compound, apart from limits set by blood flow) at 0.8 μM in data set [1] was found to be 44 µL/min/mg. For the compound `O=C1NCC2(CCN(c3c(Cl)cncc3-c3ccc(-c4cnn([C@H]5CCC[C@@H]5O)c4)cc3)CC2)O1` (racemic) [Example 57, 8-(3-Chloro-5-{4-[1-((1S,2S)-2-hydroxy-cyclopentyl)-1H-pyrazol-4-yl]-phenyl}-pyridin-4-yl)-1-oxa-3,8-diaza-spiro[4.5]decan-2-one], the IC50 with Wnt pathway was 18 nM. The microsomal CLint at 0.8 μM in data set [1] amounted to 32 µL/min/mg. Turning to `CC1NC(=O)OC12CCN(c1c(Cl)cncc1-c1ccc3c(c1)CS(=O)(=O)N3C)CC2` (racemic) [Example 96, 8-[3-Chloro-5-(1-methyl-2,2-dioxo-2,3-dihydro-1H-2l6-benzo[c]isothiazol-5-yl)-pyridin-4-yl]-4-methyl-1-oxa-3,8-diaza-spiro[4.5]decan-2-one], in the data set on Wnt pathway, the IC50 came to 4.2 nM. Moreover, the microsomal CLint at 0.8 μM in data set [1] came out at 39 µL/min/mg. For `CC1NC(=O)OC12CCN(c1c(Cl)cncc1-c1ccc(-c3cnn(C)c3)cc1)CC2` (racemic) [Example 97, 8-{3-Chloro-5-[4-(1-methyl-1H-pyrazol-4-yl)-phenyl]-pyridin-4-yl}-4-methyl-1-oxa-3,8-diaza-spiro[4.5]decan-2-one] the same measures were 42 nM and 26 µL/min/mg. Regarding `Cn1ncc2cc(-c3cncc(Cl)c3N3CCC4(CC3)CC(=O)NC4=O)ccc21` [Example 1, 8-[3-Chloro-5-(1-methyl-1H-indazol-5-yl)-pyridin-4-yl]-2,8-diaza-spiro[4.5]decane-1,3-dione], the IC50 in the data set with Wnt pathway amounted to 3.4 nM. Further, in data set [1], the microsomal CLint at 0.8 μM is 11 µL/min/mg. Consider `Cn1ncc2cc(-c3cncc(Cl)c3N3CCC4(CC3)NC(=O)NC4=O)ccc21` [Example 2, 8-[3-Chloro-5-(1-methyl-1H-indazol-5-yl)-pyridin-4-yl]-1,3,8-triaza-spiro[4.5]decane-2,4-dione], for which the IC50 in the data set with Wnt pathway was found to be 46 nM. In addition, the microsomal CLint at 0.8 μM in data set [1] amounted to 15 µL/min/mg. For the compound `O=C1NCCC12CCN(c1c(Cl)cncc1-c1ccc(-c3cnn(CCO)c3)cc1)CC2` [Example 5, 8-(3-Chloro-5-{4-[1-(2-hydroxy-ethyl)-1H-pyrazol-4-yl]-phenyl}-pyridin-4-yl)-2,8-diaza-spiro[4.5]decan-1-one], the “Human Clint” value in data set [1] turned out to be 40 µL/min/mg. Same read-out and setting: to `Nc1n[nH]c2cc(-c3cncc(Cl)c3N3CCC4(CCNC4=O)CC3)ccc12` [Example 7, 8-[3-(3-Amino-1H-indazol-6-yl)-5-chloro-pyridin-4-yl]-2,8-diaza-spiro[4.5]decan-1-one] belongs 27 µL/min/mg. On to `Cn1cc(-c2ccc(-c3cncc(Cl)c3N3CCC4(CC3)CNC(=O)O4)cc2)cn1` [Example 9, 8-{3-Chloro-5-[4-(1-methyl-1H-pyrazol-4-yl)-phenyl]-pyridin-4-yl}-1-oxa-3,8-diaza-spiro[4.5]decan-2-one], for which, in data set [1], the “Human Clint” value amounted to 40 µL/min/mg. `Cn1cc(-c2ccc(-c3cncc(Cl)c3N3CCC4(CC3)NC(=O)NC4=O)cc2)cn1` [Example 13, 8-{3-Chloro-5-[4-(1-methyl-1H-pyrazol-4-yl)-phenyl]-pyridin-4-yl}-1,3,8-triaza-spiro[4.5]decane-2,4-dione]: the microsomal CLint at 0.8 μM in data set [1] is below 10 µL/min/mg. As for `Cc1nc(-c2ccc(-c3cncc(Cl)c3N3CCC4(CCNC4=O)CC3)cc2)cn1C` [Example 18, 8-{3-Chloro-5-[4-(1,2-dimethyl-1H-imidazol-4-yl)-phenyl]-pyridin-4-yl}-2,8-diaza-spiro[4.5]decan-1-one], in data set [1], the “Human Clint” value was found to be 13 µL/min/mg. In the case of `Cn1nc(N)c2ccc(-c3cncc(Cl)c3N3CCC4(CCNC4=O)CC3)cc21` [Example 24, 8-[3-(3-Amino-1-methyl-1H-indazol-6-yl)-5-chloro-pyridin-4-yl]-2,8-diaza-spiro[4.5]decan-1-one], the “Human Clint” value in data set [1] is 78 µL/min/mg. On the same count and under the same terms, to `CNc1n[nH]c2cc(-c3cncc(Cl)c3N3CCC4(CCNC4=O)CC3)ccc12` [Example 34, 8-[3-Chloro-5-(3-methylamino-1H-indazol-6-yl)-pyridin-4-yl]-2,8-diaza-spiro[4.5]decan-1-one] belongs 52 µL/min/mg. `Cn1cc(-c2ccc(-c3cncc(C(F)(F)F)c3N3CCC4(CC3)CNC(=O)O4)cc2)cn1` [Example 35, 8-{3-[4-(1-Methyl-1H-pyrazol-4-yl)-phenyl]-5-trifluoromethyl-pyridin-4-yl}-1-oxa-3,8-diaza-spiro[4.5]decan-2-one]: the microsomal CLint at 0.8 μM in data set [1] is below 10 µL/min/mg. In the case of `CN1c2ccc(-c3cncc(Cl)c3N3CCC4(CC3)NC(=O)NC4=O)cc2CS1(=O)=O` [Example 37, 8-[3-Chloro-5-(1-methyl-2,2-dioxo-2,3-dihydro-1H-2l6-benzo[c]isothiazol-5-yl)-pyridin-4-yl]-1,3,8-triaza-spiro[4.5]decane-2,4-dione], the “Human Clint” value in data set [1] stood at 11 µL/min/mg.

As for `CC1=NNC(=O)C12CCN(c1c(Cl)cncc1-c1ccc3c(c1)CS(=O)(=O)N3C)CC2` [Example 41, 8-[3-Chloro-5-(1-methyl-2,2-dioxo-2,3-dihydro-1H-2l6-benzo[c]isothiazol-5-yl)-pyridin-4-yl]-4-methyl-2,3,8-triaza-spiro[4.5]dec-3-en-1-one], the “Human Clint” value in data set [1] was 85 µL/min/mg. On the same count and under the same terms, to `Cn1cc(-c2ccc(-c3cncc(C(F)(F)F)c3N3CCC4(CCNC4=O)CC3)cc2)cn1` [Example 45, 8-{3-[4-(1-Methyl-1H-pyrazol-4-yl)-phenyl]-5-trifluoromethyl-pyridin-4-yl}-2,8-diaza-spiro[4.5]decan-1-one] belongs 81 µL/min/mg. Still for that read-out and setting: to `CC1=NC2(CCN(c3c(Cl)cncc3-c3ccc4c(c3)CS(=O)(=O)N4C)CC2)C(=O)N1` [Example 46, 8-[3-Chloro-5-(1-methyl-2,2-dioxo-2,3-dihydro-1H-2l6-benzo[c]isothiazol-5-yl)-pyridin-4-yl]-2-methyl-1,3,8-triaza-spiro[4.5]dec-1-en-4-one] belongs 16 µL/min/mg; to `CC(C)(O)Cn1cc(-c2ccc(-c3cncc(Cl)c3N3CCC4(CCNC4=O)CC3)cc2)cn1` [Example 47, 8-(3-Chloro-5-{4-[1-(2-hydroxy-2-methyl-propyl)-1H-pyrazol-4-yl]-phenyl}-pyridin-4-yl)-2,8-diaza-spiro[4.5]decan-1-one], 23 µL/min/mg; to `CN1C(=O)NC(=O)C12CCN(c1c(Cl)cncc1-c1ccc(-c3cnn(C)c3)cc1)CC2` [Example 49, 8-{3-Chloro-5-[4-(1-methyl-1H-pyrazol-4-yl)-phenyl]-pyridin-4-yl}-1-methyl-1,3,8-triaza-spiro[4.5]decane-2,4-dione], 20 µL/min/mg. `CN1c2ccc(-c3cncc(Cl)c3N3CCC4(CC3)C(=O)NN=C4C(F)(F)F)cc2CS1(=O)=O` [Example 58, 8-[3-Chloro-5-(1-methyl-2,2-dioxo-2,3-dihydro-1H-2l6-benzo[c]isothiazol-5-yl)-pyridin-4-yl]-4-trifluoromethyl-2,3,8-triaza-spiro[4.5]dec-3-en-1-one]: in data set [1], the “Human Clint” value was 89 µL/min/mg. In the case of `Cn1ccc(-c2ccc(-c3cncc(Cl)c3N3CCC4(CCNC4=O)CC3)cc2)n1` [Example 67, 8-{3-Chloro-5-[4-(1-methyl-1H-pyrazol-3-yl)-phenyl]-pyridin-4-yl}-2,8-diaza-spiro[4.5]decan-1-one], in the data set with Wnt pathway, the IC50 was 41 nM.

As to `CN1c2ccc(-c3cncc(F)c3N3CCC4(CC3)CNC(=O)O4)cc2CS1(=O)=O` [Example 80, 8-[3-Fluoro-5-(1-methyl-2,2-dioxo-2,3-dihydro-1H-2l6-benzo[c]isothiazol-5-yl)-pyridin-4-yl]-1-oxa-3,8-diaza-spiro[4.5]decan-2-one], in data set [1], the “Human Clint” value amounted to 18 µL/min/mg. As to `Cn1cc(-c2ccc(-c3cncc(Cl)c3N3CCC4(CC3)CC(=O)NC4=O)cc2)cn1` [Example 86, 8-{3-Chloro-5-[4-(1-methyl-1H-pyrazol-4-yl)-phenyl]-pyridin-4-yl}-2,8-diaza-spiro[4.5]decane-1,3-dione], the IC50 in the data set on Wnt pathway amounted to 2.2 nM.

For the compound `Cn1ncc2cc(-c3cncc(Cl)c3N3CCC4(CCNC4=O)CC3)ccc21` [Example 91, 8-[3-Chloro-5-(1-methyl-1H-indazol-5-yl)-pyridin-4-yl]-2,8-diaza-spiro[4.5]decan-1-one], the IC50 with Wnt pathway came to 8.2 nM.

For the origin of these results see patent US9926319B2, “Pyridyl piperidines” (MERCK PATENT GMBH, priority 2014, dated 2018).
